Data taken from ChEMBL document CHEMBL1201862, “PubChem BioAssay data set” (2004).
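Growth conditions: 96-well plates. Treatment: test compound, 48 hours, 5 concentrations. Analysis: linear interpolation between bracketing concentrations; unreached endpoints set to highest concentration. GI50: concentration for 50% inhibition of growth.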 Activity calls are given as the source filed them. No stated cut-off is given here; in the data, active = GI50 up to about 1.1 µM and inactive = higher.

Columns and labels:
Test in all cases: DTP human tumour cell line panel, 48 h
SK-MEL-2 = test system: SK-MEL-2
HCT-116 = test system: HCT-116
RXF 393 = test system: RXF 393
NCI-H460 = test system: NCI-H460
TK-10 = test system: TK-10
SF-268 = test system: SF-268
EKVX = test system: EKVX
Malme-3M = test system: Malme-3M
UACC-62 = test system: UACC-62
SW-620 = test system: SW-620
NCI-H23 = test system: NCI-H23
Hs-578T = test system: Hs-578T
SK-MEL-28 = test system: SK-MEL-28
MOLT-4 = test system: MOLT-4
OVCAR-3 = test system: OVCAR-3
OVCAR-8 = test system: OVCAR-8
MDA-MB-231 = test system: MDA-MB-231
OVCAR-4 = test system: OVCAR-4
NCI/ADR-RES = test system: NCI/ADR-RES

Measured: GI50

CCCCCCCCCCCCOCCCCCCCCC/C=C/c1ccc2c(c1)OCCOCCOCCOCCO2
inactive: SK-MEL-2 15.8 µM | HCT-116 16 µM | RXF 393 19.2 µM | NCI-H460 18.4 µM | TK-10 19.6 µM | SF-268 22.8 µM | EKVX 26.6 µM | Malme-3M 24.6 µM | UACC-62 15.1 µM | SW-620 30.3 µM | NCI-H23 15.6 µM | Hs-578T 16.4 µM | SK-MEL-28 30.7 µM | MOLT-4 28.7 µM | OVCAR-3 21.1 µM | OVCAR-8 12.7 µM | MDA-MB-231 17.1 µM | OVCAR-4 19.3 µM | NCI/ADR-RES 17.5 µM

Cc1ccc(N(C)S(=O)(=O)c2ccccc2)cc1
inactive: SK-MEL-2 > 100 µM | HCT-116 86.5 µM | RXF 393 29.5 µM | NCI-H460 87.9 µM | TK-10 > 100 µM | SF-268 > 100 µM | EKVX 97.9 µM | Malme-3M > 100 µM | UACC-62 84.5 µM | SW-620 > 100 µM | NCI-H23 95.5 µM | Hs-578T > 100 µM | SK-MEL-28 > 100 µM | MOLT-4 19 µM | OVCAR-3 > 100 µM | OVCAR-8 > 100 µM | MDA-MB-231 88.3 µM | OVCAR-4 > 100 µM | NCI/ADR-RES > 100 µM

COc1c(C2(c3ccc(F)cc3)SCCCS2)c(=O)c1=O
inactive: SK-MEL-2 > 100 µM | HCT-116 > 100 µM | RXF 393 > 100 µM | NCI-H460 > 100 µM | TK-10 > 100 µM | SF-268 > 100 µM | EKVX > 100 µM | Malme-3M > 100 µM | UACC-62 > 100 µM | SW-620 > 100 µM | NCI-H23 > 100 µM | Hs-578T > 100 µM | SK-MEL-28 > 100 µM | MOLT-4 > 100 µM | OVCAR-3 > 100 µM | OVCAR-8 > 100 µM | MDA-MB-231 > 100 µM | OVCAR-4 > 100 µM | NCI/ADR-RES > 100 µM

CCCCCCCCCCOC1C(C(C)OCCCN(C)C)OC2OC3(CCCCC3)OC21 (centres undefined)
inactive: SK-MEL-2 15.8 µM | HCT-116 13.4 µM | RXF 393 14.9 µM | NCI-H460 3.08 µM | TK-10 23.1 µM | SF-268 15.3 µM | EKVX 18.2 µM | Malme-3M 15.2 µM | UACC-62 13.3 µM | SW-620 12.7 µM | NCI-H23 10.2 µM | Hs-578T 18.1 µM | SK-MEL-28 12.2 µM | MOLT-4 12.9 µM | OVCAR-3 14.7 µM | OVCAR-8 18.8 µM | MDA-MB-231 15.3 µM | OVCAR-4 13.6 µM | NCI/ADR-RES 17 µM

Cc1c(C)c2c(c(N)c1C#N)C(=O)N(NC(=S)Nc1ccccc1)C2=O
inactive: SK-MEL-2 > 100 µM | HCT-116 52.6 µM | RXF 393 46 µM | NCI-H460 61.2 µM | TK-10 > 100 µM | SF-268 31.4 µM | EKVX > 100 µM | Malme-3M 72.9 µM | UACC-62 > 100 µM | SW-620 57.5 µM | NCI-H23 > 100 µM | Hs-578T 42.1 µM | SK-MEL-28 > 100 µM | MOLT-4 20.3 µM | OVCAR-3 > 100 µM | OVCAR-8 45 µM | MDA-MB-231 > 100 µM | OVCAR-4 > 100 µM | NCI/ADR-RES 71.3 µM

COc1ccc(Cc2nc3cc(Cl)ccc3o2)cc1
inactive: SK-MEL-2 23.3 µM | HCT-116 36.5 µM | RXF 393 22.6 µM | NCI-H460 31.2 µM | TK-10 35.7 µM | SF-268 45.4 µM | EKVX 27.2 µM | Malme-3M 26.7 µM | UACC-62 60 µM | SW-620 35.5 µM | NCI-H23 29.2 µM | Hs-578T 49.2 µM | SK-MEL-28 37.2 µM | MOLT-4 18.8 µM | OVCAR-3 27 µM | OVCAR-8 40.8 µM | MDA-MB-231 30.8 µM | OVCAR-4 18.8 µM | NCI/ADR-RES 24.2 µM
